One series deals with rats. Conditions: L-carnitine together with ifosfamide; cited from earlier work.
For series [1], the system named is proximal tubule of the kidneys. Briefly: comparative investigation of nephrotoxicity in healthy and tumour-bearing rats. In kind it is in vivo. The text has this:
In accordance with the set object, comparative investigations were investigated [sic] out with respect to effect on the nephrotoxicity in healthy and tumour-bearing rats after administration of ifosfamide on its own and in combination with L-carnitine. The doses for L-carnitine were selected such that the compound itself causes no side effects at all in the animals.

A further series relates to tumour-bearing rats. Put plainly: antitumour action of ifosfamide in combination with L-carnitine. Conditions: FIGS. 1 and 2. Format: in vivo.

For `C[N+](C)(C)C[C@H](O)CC(=O)[O-]` [L-carnitine], the clinical result in the series on rats is on record as “decreased lethargy”. The “effect on ifosfamide-induced damage to the proximal tubule of the kidney” value in series [1] (simultaneous administration of L-carnitine 2×100 mg/kg i.v. with ifosfamide, rats) was “antagonized significantly”.
`O=P1(NCCCl)OCCCN1CCCl` (stereo not shown) [ifosfamide]: the “damage to the proximal tubule of the kidneys” value in series [1] (ifosfamide on its own, healthy and tumour-bearing rats (both animal groups)) is reported as “clear dose-dependent damage”. For the same compound, the “antitumour action of ifosfamide” value in the series on tumour-bearing rats is listed as “not affected”.
